Reference: US20140336135A1, “NOVEL USE OF RHODODENDRIN” (Catholic University Industry Academy Cooperation Foundation, priority 2013, published 2014)

Key:
HaCaT cells [1] = experiment: Cytotoxicity of rhododendrin, MTT cell viability; type: cell-based, human; conditions: various concentrations, 24 hours
Method: HaCaT cells were purchased from CLS Cell Line Service GmbH (Eppelheim, Germany). HaCaT cells were seeded at a density of 2×10^4 cells/well in 96-well plates. After a 12 hours incubation, the cells were incubated with various concentrations of rhododendrin for 24 hours. Then, cells were incubated with 3-(4,5-dimethylthiaol-2-yl)-2,5-diphenyltetrazolium bromide (MTT) reagent for 2-4 hours at 37° C. To calculate cell viability, MTT signals were quantified with a microplate reader (BioTek, Winooski, Vt., USA) at wavelength of 540 nm.

HaCaT cells [2] = experiment: ROS scavenging activity, ROS induced by TNF-α/IFN-γ (H2DCF-DA); type: cell-based, human
Method: HaCaT cells were seeded at a density of 3×10^5 cells/well in 6-well plates for 12 hours. Cells were washed with serum-free media, treated with 20 μm rhododendrin for 1 hour, and then stimulated with 10 ng/ml of TNF-α and 100 U/ml of […] for 3 hours. The cells were stabilized in Hanks' balanced salt solution (HBSS) for 30 minutes, stained with 10 μM 2′,7′-dichlorofluorescin diacetate (H2DCF-DA) at 37° C. for 30 minutes, and ROS signal was then analyzed with confocal microscopy with emission at 513 nm and excitation at 488 nm. Also, the fluorescence of the cells was measured with a microplate reader (Synergy, BIO TEK, US).

[3] = tested on: Human keratinocyte HaCaT cells; experiment: Inhibition of intracellular ROS induced by UV irradiation (H2DCF-DA); type: cell-based; conditions: 20 μM rhododendrin 1 hour, then 100 J/m^2 UV light
Method: Human keratinocyte HaCaT cells (obtained from professor N. Fusenig, Cancer Research, Germany) were placed in a 60-mm culture dish at a density of 5×10^5 cells (1×10^6 cells for a 100 mm culture dish), and then cultured in 10% FBS (fetal bovine serum)-containing DMEM (Dulbecco's modified Eagle's medium) for 24 hours.
After culture, the cells were treated with 20 μM rhododendrin for 1 hour, and then washed three times with PBS (phosphate buffered saline). To induce ROS (reactive oxygen species), the cells were irradiated with 100 J/m^2 of UV light from a UV lamp (FSX 24 T12/UVB/HO, Pansol™ USA). Immediately after UV irradiation, the cells were washed with PBS and cultured for 4 hours in 1% FBS-containing DMEM medium supplemented with […]. Then, the cells were treated with 25 μM DCFH-DA (2,7-dichlorofliuorescin diacetate) in HBSS (Hank's balanced salt solution, BioWhittaker, CAMBREX, USA) buffer for 30 minutes, and then washed three times with PBS. Next, the measurement of ROS production in the cells by H2DCF-DA staining was performed in the same manner as described in Example 3-1.

[4] = tested on: mice having psoriasis induced by imiquimod; experiment: Inhibition of hyperkeratinization in imiquimod psoriasis-induced mouse model (histology, qRT-PCR); type: in vivo, mice (C57BL/6)
Method: Tissues were excised from mice having psoriasis induced by imiquimod, and then the effect of rhododendrin on the inhibition of hyperkeratinization in the tissues was examined by histological analysis and qRT (quantitative real-time)-PCR analysis.
Specifically, in order to induce psoriasis by imiquimod, the hairs on the back of 8-week-old mice (C57BL/6, Central Animal Laboratory Inc.) were removed by using hair removal cream. The back of the mice was pre-treated daily with 20 mM rhododendrin before 1 hour, and then imiquimod (3.125 mg) was applied to the back at an one-day interval for 7 days. On the last day of application, the tissues were collected.
Histological examination of the mice skin was performed in the following manner. The mouse skin tissues were fixed in PBS containing 4% paraformaldehyde for 24 hours, washed with tap water, dehydrated with ethanol, and then embedded in paraffin to make a paraffin block. The paraffin block was cut with a microtome into 4 μm-thick sections, which were then placed on a glass slide and treated with xylene to remove wax (paraffin). Then, the tissue sections were dehydrated with ethanol and stained with hematoxylin-eosin (H&E). Histological analysis was performed using a fluorescence attached microscope (Olympus, Japan).
RNA isolation and qRT (quantitative real-time)-PCR analysis were performed in the following manner. Total RNAs were isolated from the tissues using an RNeasy Mini Kit (Qiagen, Valencia, Calif., USA) according to the manufacturer's instructions, and then synthesized into cDNA using QuantiTect Reverse Transcription Kit (Qiagen) according to the manufacturer's instructions. qRT-PCR was performed using Rotorgene™6000 (Corbett life Science) with KAPA™SYBR FAST q-PCR Master Mix(2×) universal. The relative amount of mRNAs was determined by […] method using GAPDH as an internal control. PCR was performed under the following conditions: 95° C. for 5 min; 35 cycles, each consisting of 96° C. for 20 sec, 60° C. for 20 sec and 72° C. for 20 sec; and one cycle at 72° C. for 5 min.

TLR7 signaling = experiment: Effect on TLR7 signaling pathway in keratinocytes (Western blot, immunofluorescence); type: cell-based, human
Method: Keratinocytes were treated with imiquimod, and then TLR7 signaling in the cells was examined by Western blot analysis and immune fluorescence staining. The detailed experimental methods are as follows.
Primary keratinocytes collected from the foreskin of a healthy subject were cultured. Human keratinocytes were cultured in keratinocyte serum-free medium (K-SFM) supplemented with epidermal growth factor (EGF) and bovine pituitary extract (Gibco BRL, Rockville, Md.). When the cells reached to 70% confluency, the cells were washed twice with PBS and cultured in K-SFM for 24 hours. To induce the differentiation of the keratinocytes, 1.2 mM calcium was added to the cells which were then cultured for 1, 3, 7 and 14 days, respectively.
Western blot analysis was performed in the following manner. Serum-starved keratinocytes were treated with various concentrations of rhododendrin for 1 hour, and then stimulated by treatment with imiquimod for different time periods. The cell pellets were lysed in ice-cold RIPA buffer (Roche Applied Science, Indianapolis, Ind., USA) containing protease inhibitor cocktail at 4° C. for 30 minutes. Protein samples were isolated by SDS-PAGE (sodium dodecylsulfate-polyacrylamide gel electrophoresis) and analyzed by immunoblotting. Briefly, the protein on the SDS polyacrylamide gel was transferred to a nitrocellulose membrane (Amersham, UK). […] A signal was detected using X-ray film development or Image-Analyzer System (LAS-3000, Fujifilm, Japan) in a dark room.
In addition, the expression patterns of TLR7, NF-kB (a marker of TLR7) and caveolin (a marker of psoriasis) were analyzed by immunofluorescence in the following manner.
Primary keratinocytes (5×10^5 cells/well) were pre-treated with rhododendrin for 1 hour, and then stimulated with imiquimod for 1 hour. The signal of immunostained NF-kB p65 was analyzed by the method described in Y. Kim. et. al., Free Radical Biology and Medicine; 51(11): 1985-1995, 2011. […]

C[C@H](CCc1ccc(O)cc1)O[C@@H]1O[C@H](CO)[C@@H](O)[C@H](O)[C@H]1O [rhododendrin, Rhododendrin]
cytotoxicity (cell viability, MTT) (HaCaT cells [1]): no cytotoxicity | production of DCF-fluorescence (microplate reader) (HaCaT cells [2]; 20 μM rhododendrin, then TNF-α/IFN-γ, FIG. 3): decreased to that in the control group not treated with TNF-α/IFN-γ | ROS signal (H2DCF-DA fluorescence) by confocal microscopy (HaCaT cells [2]; 20 μm rhododendrin 1 hour, then 10 ng/ml TNF-α and 100 U/ml IFN-γ 3 hours, FIG. 2): no fluorescence was detected | ROS fluorescence by confocal microscopy ([3]; FIG. 4): only very minute fluorescence spots were found | amount of DCF-fluorescence (microplate reader) ([3]; versus group not treated, FIG. 5): significantly lower | induction of psoriasis (visual observation of the back tissue) ([4]; 20 mM rhododendrin on the back daily 1 hour before imiquimod (3.125 mg), 7 days, FIGS. 6 to 8): significantly decreased | thickness of the epidermal and dermal layers ([4]; 20 mM rhododendrin topical, imiquimod 7 days, H&E histology, FIGS. 7, 8): a decrease in the thickness of the epidermal and dermal layers | expression of TLR (mRNA, qRT-PCR) in skin tissue ([4]; 20 mM rhododendrin topical, imiquimod 7 days, versus control group, FIG. 9): significantly lower | activity of caveolin (marker of psoriasis) (TLR7 signaling; keratinocytes, imiquimod and 20 μM rhododendrin, fluorescence staining, FIG. 14): protected | activity of TLR7 (down signaling) (TLR7 signaling; primary keratinocytes pre-treated with rhododendrin 1 hour, then imiquimod, FIGS. 12 and 13): inhibited | activity of NF-kB (marker of TLR7) (TLR7 signaling; primary keratinocytes pre-treated with rhododendrin 1 hour, then imiquimod, phospho-NF-kB p65 Western blot and p65 immunostaining, FIGS. 12 and 13): also inhibited
